According to patent publication US20250051307A1, “SALT OF 3,4-DIHYDROISOQUINOLINE COMPOUND AND USE THEREOF” (CSPC ZHONGQI PHARMACEUTICAL TECHNOLOGY(SHIJIAZHUANG) CO., …, priority 2021, published 2025):
Like-named read-outs stand apart in the source and are kept apart here. Marks after values point to notes of the source that are not given here.

How the values were obtained:
PRMT5 = PRMT5 (Homo sapiens (Human), UniProt O14744); assay: Radiometric assay for PRMT5 based on FlashPlate technology; type: biochemical
Chain of PRMT5 (O14744 whole entry): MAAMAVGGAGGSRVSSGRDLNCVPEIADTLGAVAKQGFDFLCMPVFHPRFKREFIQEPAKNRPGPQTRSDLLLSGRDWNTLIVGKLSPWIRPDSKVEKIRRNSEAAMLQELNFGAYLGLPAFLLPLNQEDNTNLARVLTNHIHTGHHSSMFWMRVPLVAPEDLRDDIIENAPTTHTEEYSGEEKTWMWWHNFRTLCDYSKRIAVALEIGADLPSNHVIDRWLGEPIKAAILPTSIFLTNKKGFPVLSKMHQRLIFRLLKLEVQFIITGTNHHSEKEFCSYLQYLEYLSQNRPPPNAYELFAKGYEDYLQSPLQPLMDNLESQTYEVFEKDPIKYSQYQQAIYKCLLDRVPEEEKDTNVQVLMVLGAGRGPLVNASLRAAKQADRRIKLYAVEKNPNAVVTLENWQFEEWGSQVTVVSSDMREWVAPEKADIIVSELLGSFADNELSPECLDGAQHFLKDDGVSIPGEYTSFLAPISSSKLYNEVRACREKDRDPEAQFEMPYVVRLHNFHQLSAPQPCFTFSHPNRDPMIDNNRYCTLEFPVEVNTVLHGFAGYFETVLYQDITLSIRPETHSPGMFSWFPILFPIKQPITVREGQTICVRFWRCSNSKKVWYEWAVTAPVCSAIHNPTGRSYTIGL
Chain of PRMT5 (Q9BQA1 whole entry partner): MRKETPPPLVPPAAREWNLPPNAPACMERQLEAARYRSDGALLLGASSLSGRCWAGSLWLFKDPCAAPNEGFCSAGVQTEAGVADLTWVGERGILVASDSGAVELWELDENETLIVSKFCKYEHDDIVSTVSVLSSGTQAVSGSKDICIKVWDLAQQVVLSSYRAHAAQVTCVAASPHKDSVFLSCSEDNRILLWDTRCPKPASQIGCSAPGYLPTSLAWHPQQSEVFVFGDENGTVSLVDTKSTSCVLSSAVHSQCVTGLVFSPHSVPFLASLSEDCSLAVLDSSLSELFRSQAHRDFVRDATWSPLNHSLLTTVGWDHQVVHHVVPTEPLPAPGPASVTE
Procedure: The radiometric assay for PRMT5 based on FlashPlate technology was adopted to determine IC50 of the test compound.
After dissolved in dimethyl sulfoxide respectively, the test compounds were added into an Echo Qualified 384-well plate and diluted to the desired concentrations. The diluted test compounds were transferred from the Echo Qualified 384-well plate to a 384-well reaction plate using an Echo 550 instrument, and dimethyl sulfoxide was transferred into both the control and blank wells. […] At a volume of 15 μL/well, the 1.67× enzyme solution was added into wells of the 384-well reaction plate. […] The reaction plate was centrifuged at 1000 rpm for 1 min, and incubated at room temperature for 15 min. […] From each well of the test plate, 25 μL was measured and transferred to Flashplate and left at room temperature for 1 h. Thereafter, the Flashplate was washed with 0.1% Tween-20 solution three times. Readings were taken with MicroBeta 2. The data was converted into the inhibition rate data. Inhibition rate=(conversion ratecontrol well−conversion ratecompound well)/(conversion ratecontrol well−conversion rateblank well)×100%.

[1] = system: human acute monocytic leukemia cell line MV4-11; assay: MV4-11 MTT cell growth inhibition; type: cell-based
Text: The complete medium required for the culture of human acute monocytic leukemia cell line MV4-11 (Shanghai Cell Bank) for experiment was IMDM (CatNO. 12440-053, gibco) supplemented with 10% FBS (Cat NO. SA311.02, cellmax). […] The experiment reagents included dimethyl sulfoxide (Tianjin Kemiou Chemical Reagent Co., Ltd.) and MTT (THIAZOLYL BLUE TETRAZOLIUM BROMIDE, CAS. NO. 298-93-1, VWR). The control compound GSK3326595 for experiment was homemade or commercially available. The test compound was encapsulated and stored at 4° C.
Dimethyl sulfoxide was used as a vehicle to fully dissolve the test compound, thereby formulating a stock solution at a concentration of 5×10^−2 mol/L. The stock solution was stored at −20° C. With the complete medium as diluent, the test compound was subjected to gradient dilution to afford dilutions at different concentrations for standby application. In a 96-well culture plate, the suspension of the human acute monocytic leukemia cell line MV4-11 in the complete medium, at a volume of 100 μL/well (2×10^3 cells/well), was added. […] The OD value at 550 nm was measured with a microplate reader. […] The cell growth inhibition rate was calculated according to the following equation: […]
According to the inhibition rate at each concentration, the half maximal inhibitory concentration IC50 value was calculated using the SPSS software.

[2] = Pharmacokinetic experiment in SD rats; type: in vivo; settings: 25 mg/kg by gavage; for Cmax / Tmax / AUC(0-t): male, Sprague-Dawley (SD), rat, po, plasma; for AUC(0-t): read-out: AUC0-24h
Procedure: SD rats (male, 180 g to 200 g, Beijing Vital River Laboratory Animal Technology Co., Ltd.) were administered with the test compounds (solvent: 2% DMSO+98% (0.2 g/mL) hydroxypropyl-β-cyclodextrin, dosing volume: 5 mL/kg) by gavage. Blood was collected from the orbits of the rats at different points in time (0.25, 0.5, 1, 2, 4, 8, 24 h) after administration. The collected whole blood was anticoagulated with heparin sodium and centrifuged at 3000 g to obtain rat plasma samples, and methanol was added thereto to precipitate proteins. The drug concentration in rat plasma after administration was determined by HPLC-MS/MS method. A drug concentration-time curve was plotted and the pharmacokinetic parameters were calculated. Pharmacokinetic behaviors of the compounds after administration in rats were described by means of the parameter estimation of non-compartmental model based on statistical moment theory.

[3] = Solubility determination in water and biological media; type: physicochemical; settings: for solubility at 24 h: thermodynamic from solid, 37° C., solubility is in free state; for Solubility compared with the free base sample: water and FassIF media, vs Preparation Example 1
Text: • FaSSIF: human fasted state simulated intestinal fluid; FeSSIF: human fed state simulated intestinal fluid; SGF: human fasted state simulated gastric fluid.

[4] = system: MV4-11 subcutaneous xenograft; assay: MV4-11 subcutaneous xenograft model, in vivo efficacy; set-up: species or system NOD-SCID mice; settings: for Body Weight Change (%): 11 consecutive days; for d9 Tumor Volume (mm^3): 9th day after administration; for d0 Tumor Volume (mm^3): before grouping for administration, 100 mg/kg group; for RTV (d9): d9 tumor volume/d0 tumor volume; for Tumor Weight: end of experiment; for Tumor Weight / Tumor weight inhibition rate (%): 11 days; for Tumor weight inhibition rate (%): vs vehicle group
Procedure: Experimental female NOD-SCID mice, SPF grade, 4 to 5 weeks, were purchased from Beijing Vital River Laboratory Animal Technology Co., Ltd. The mice were intraperitoneally injected with cyclophosphamide at a dose of 100 mg/kg one day before cell inoculation. The human acute monocytic leukemia cell line MV4-11 (1×10^7/0.1 ml/mouse) was subcutaneously inoculated into forelimb axilla of mice to establish a subcutaneous xenograft model. When the tumor volumes reached about 110 mm^3 (10 days after inoculation), the mice were equally grouped according to the tumor volume, with 5 mice in each group, i.e., vehicle group (2% DMSO+98% (0.2 g/mL) hydroxypropyl-β-cyclodextrin) and test drug groups. For the test drug groups, the dose of administration was 100 mg/kg, the dosing volume was 10 mL/kg, the dosing frequency was BID, the tumor diameters were measured twice per week, and the data was recorded. The mice were administered for 11 consecutive days. When the experiment ended, the tumors were dissected and weighed.
The body weight growth rate, the tumor volume, and the tumor weight inhibition rate were calculated according to the following equations: body weight growth rate=X(Wi-W0)/XW0×100%, where Wi denoted the body weight of a mouse in each test drug group on the n^th day, and W0 denoted the body weight of a mouse in each test drug group at the beginning of administration; tumor volume (V)=½× a× b^2, where a and b denoted the long diameter and the short diameter of a tumor, respectively; d0 denoted before grouping for administration, d9 denoted the 9th day after administration, relative tumor volume (RTV)=d9 tumor volume/d0 tumor volume; tumor weight inhibition rate=(tumor weightvehicle group−tumor weighttest drug group)/tumor weightvehicle group×100%.

[5] = Long-term (three months) stability of Crystal Form I; type: physicochemical
[6] = Solid stability of crystal forms under different humidity conditions (XRPD); type: physicochemical; settings: 7 days
Text: (§1) The samples were subjected to X-ray powder diffraction to investigate the stability of the samples under different conditions, and the results are shown in the following table.

[7] = Solid stability of crystal forms at high temperature (XRPD); type: physicochemical; settings: 60° C., sealed, 7 days
Text: as §1

[8] = vs positive control drug GSK3326595
[9] = FaSSIF (human fasted state simulated intestinal fluid), FassIF, read-out: 24 h solubility (mg/mL) FassIF
[10] = SGF (human fasted state simulated gastric fluid), simulated gastric fluid, SGF, read-out: 24 h solubility (mg/mL) SGF
[11] = water, read-out: 24 h solubility (mg/mL) Water

With `CON=C(C)C(=O)N1CCC(Nc2cc(C(=O)NC[C@H](O)CN3CCc4ccccc4C3)ncn2)CC1` [Compound of formula (A)] as the compound, how does the IC50 (PRMT5; PRMT5 5 nM, [3H]-SAM, 25° C. 60 min, read-out: Enzymology (IC50)) read?
Its IC50 is 31 nM.

And the “Inhibitory activity at enzyme level compared with GSK3326595” value (PRMT5; [8])?
Its value is “better inhibitory activities”.

And the “Inhibitory activity at cell level compared with GSK3326595” value [1, 8]?
Its value is “better inhibitory activities”.

And the “Absorption in rats compared with GSK3326595” value [2]?
Its value is “better absorbed”.

What about the Cmax [2] of the same compound?
The Cmax was 2370 ng/mL.

What about the Tmax [2] of the same compound?
The Tmax was 0.333 h.

What about the AUC(0-t) [2] of the same compound?
The AUC(0-t) was 4410 ng·h/mL.

And the solubility at 24 h [3, 9]?
The solubility at 24 h was 1.7 mg/mL.

And the solubility at 24 h [3, 10]?
The solubility at 24 h was > 4.4 mg/mL.

And the solubility at 24 h [3, 11]?
The solubility at 24 h was 0.39 mg/mL.

What about the “Tumor-inhibitory activity in MV4-11 xenografts model” value ([4]; 100 mg/kg BID) of the same compound?
Its value is “significant tumor-inhibitory activity”.

What about the “Body Weight Change (%)” value ([4]; 100 mg/kg BID) of the same compound?
Its value is −6.1%.

What about the “d9 Tumor Volume (mm^3)” value ([4]; 100 mg/kg BID) of the same compound?
Its value is 55.7 ± 19.7 ***## mm^3.

And the “d0 Tumor Volume (mm^3)” value [4]?
Its value is 165.3 ± 27.5 mm^3.

What about the “RTV (d9)” value ([4]; 100 mg/kg BID) of the same compound?
The value was 0.4 ± 0.1.

What about the “Tumor Weight” value ([4]; 100 mg/kg BID) of the same compound?
The value was 0.0648 ± 0.0267 g.

What about the “Tumor weight inhibition rate (%)” value ([4]; 100 mg/kg BID) of the same compound?
The value was 91.1%.

With `CON=C(C)C(=O)N1CCC(Nc2cc(C(=O)NC[C@H](O)CN3CCc4ccccc4C3)ncn2)CC1.O=C(O)C[C@H](O)C(=O)O` [Example 1] as the compound, how does the “Crystal Form after storage” value ([5]; 3 months, long-term stability) read?
Its value is “Crystal Form I”.

What about the Purity after storage ([5]; 3 months, long-term stability) of the same compound?
Its Purity after storage is 99.32%.

What about the Initial purity ([5]; before long-term storage) of the same compound?
The Initial purity was 99.43%.

Which results are given for `CON=C(C)C(=O)N1CCC(Nc2cc(C(=O)NC[C@H](O)CN3CCc4ccccc4C3)ncn2)CC1.O=C(O)C[C@H](O)C(=O)O` [Example 2]?
Crystal form after storage (XRPD) ([6]; 23° C./33% RH): Crystal Form II; Crystal form after storage (XRPD) ([6]; 25° C./60% RH): Crystal Form II; Crystal form under different humidity conditions (conclusion) [6]: unchanged; Crystal form after storage (XRPD) [7]: Crystal Form II

Which “Crystal form after storage (XRPD)” value ([6]; 23° C./33% RH) does the source give for `CON=C(C)C(=O)N1CCC(Nc2cc(C(=O)NC[C@H](O)CN3CCc4ccccc4C3)ncn2)CC1.O=C(O)C[C@H](O)C(=O)O` [Example 3] here?
Its value is “Crystal Form III”.

What about the “Crystal form after storage (XRPD)” value ([6]; 25° C./60% RH) of the same compound?
Its value is “Crystal Form III”.

What about the “Crystal form under different humidity conditions (conclusion)” value [6] of the same compound?
The value was “unchanged”.

Which “Crystal form after storage (XRPD)” value ([6]; 23° C./33% RH) does the source give for `CON=C(C)C(=O)N1CCC(Nc2cc(C(=O)NC[C@H](O)CN3CCc4ccccc4C3)ncn2)CC1.O=C(O)C[C@H](O)C(=O)O` [Example 4] here?
The value was “Crystal Form IV”.

What about the “Crystal form after storage (XRPD)” value ([6]; 25° C./60% RH) of the same compound?
Its value is “Crystal Form IV”.

And the “Crystal form under different humidity conditions (conclusion)” value [6]?
Its value is “unchanged”.

For `CON=C(C)C(=O)N1CCC(Nc2cc(C(=O)NC[C@H](O)CN3CCc4ccccc4C3)ncn2)CC1.O=C(O)C[C@H](O)C(=O)O` [Example 5], which “Crystal form after storage (XRPD)” value [7] is on record?
Its value is “Crystal Form V”.

Which solubility at 24 h [3, 9] does the source give for `CON=C(C)C(=O)N1CCC(Nc2cc(C(=O)NC[C@H](O)CN3CCc4ccccc4C3)ncn2)CC1.O=C(O)C[C@H](O)C(=O)O` [Example 7] here?
The solubility at 24 h was > 4.7 mg/mL.

And the solubility at 24 h [3, 10]?
The solubility at 24 h was > 4.8 mg/mL.

What about the solubility at 24 h [3, 11] of the same compound?
Its solubility at 24 h is > 4.9 mg/mL.

And the “Solubility compared with the free base sample” value [3]?
Its value is “significantly higher”.

Which solubility at 24 h [3, 9] does the source give for `CON=C(C)C(=O)N1CCC(Nc2cc(C(=O)NC[C@H](O)CN3CCc4ccccc4C3)ncn2)CC1.O=C(O)C(=O)O` [Example 11] here?
The solubility at 24 h was > 9.1 mg/mL.

And the solubility at 24 h [3, 10]?
The solubility at 24 h was > 9.2 mg/mL.

And the solubility at 24 h [3, 11]?
The solubility at 24 h was > 9.1 mg/mL.

What about the “Solubility compared with the free base sample” value [3] of the same compound?
Its value is “significantly higher”.

For `CC(=O)N1CCC(Nc2cc(C(=O)NC[C@H](O)CN3CCc4ccccc4C3)ncn2)CC1` [GSK3326595, reference compound], which IC50 ([1]; Homo sapiens, MV4-11, 144 h, MTT on Day 6) is on record?
The IC50 was 6.68 nM.

What about the Cmax [2] of the same compound?
Its Cmax is 60.3 ng/mL.

And the Tmax [2]?
Its Tmax is 2.67 h.

What about the AUC(0-t) [2] of the same compound?
The AUC(0-t) was 589 ng·h/mL.

What about the “Body Weight Change (%)” value ([4]; 100 mg/kg BID) of the same compound?
The value was −6.8%.

And the “d9 Tumor Volume (mm^3)” value ([4]; 100 mg/kg BID)?
The value was 135 ± 43** mm^3.

What about the “d0 Tumor Volume (mm^3)” value [4] of the same compound?
Its value is 165.2 ± 23.1 mm^3.

And the “RTV (d9)” value ([4]; 100 mg/kg BID)?
The value was 0.8 ± 0.2.

What about the “Tumor Weight” value ([4]; 100 mg/kg BID) of the same compound?
The value was 0.1124 ± 0.0764 g.

What about the “Tumor weight inhibition rate (%)” value ([4]; 100 mg/kg BID) of the same compound?
Its value is 84.5%.
